The record followed here is patent publication US20230159511A1, “TETRAHYDROISOQUINOLINE COMPOUNDS AS NRF2 ACTIVATORS” (C4X Discovery Limited, priority 2020, published 2023).

Where two headings read alike, the source gives them in different places. Where only a bound is given, the exact number is not on record here.

In assay [1] the target is T1, human KEAP1 (N-term, residues 321-609) (Homo sapiens, UniProt Q14145).
T1 construct: human KEAP1 (N-term, residues 321-609)
The assay can be described thus: KEAP1 Kelch Fluorescence Polarization (FP) Assay. The assay is classed as binding. To be noted: inhibition of Kelch domain-NRF2 interaction; 2 nM FITC-labelled NRF2 peptide, 25 nM KEAP1, 1 h room temperature; compounds below 10 nM cannot be differentiated. In a few lines: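 Compounds in 12-point curves (top 10 μM) displaced 2 nM FITC-labelled NRF2 peptide from 25 nM KEAP1 residues 321-609 over 1 h at room temperature. Polarization read at 470/530 nm, window set by 50 μM unlabelled peptide; four-parameter fit gave IC50, floor 10 nM.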
On the technique in general: Fluorescence polarisation rises when a labelled molecule tumbles more slowly, as on binding a larger partner.

In assay [2] the test system is NRF2 mediated gene NAD(P)H:quinone acceptor oxidoreductase 1 (NQO1) in BEAS-2B cells. The assay can be described thus: Beas2B NQO1 mRNA Cell Based Assay. Further details: species or system human. To be noted: Homo sapiens. The procedure:
Beas2B NQO1 mRNA Cell Based Assay
The up regulation of the NRF2 mediated gene NAD(P)H:quinone acceptor oxidoreductase 1 (NQO1) was measured using the following assay method: BEAS-2B cells (ATCC CRL-9609) were plated in 96-well clear plates at 20,000 cells/well in 75 μL of cell culture media and incubated overnight (37° C., 5% CO2). On day 2, 25 μL of compound or controls were added to the cells for 24 h. On day 3, the medium was aspirated from the plate and the Cells-to-CT™ 1-Step TaqMan® Kit (Ambion A25603) was used to perform expression analysis directly from cultured cells without RNA purification according to the manufacturer's instructions.
Briefly, cells were washed with ice cold PBS and 22.5 μL of room-temperature DNase/Lysis solution was added to the cells and incubated at room temperature for 5 minutes. To stop the reaction, 2.25 μL of stop solution was added to the cell lysate. The samples were diluted 1:5 using nuclease free water and 2.5 μL transferred into the PCR plate. Real-time PCR was performed using the C-1000 Thermal Cycler (Bio-Rad) using human beta actin as the internal control. The cDNA was amplified with a specific primer for NQO1 using the 1-step RT-PCR master mix (Ambion Cells-to-CTTM 1-Step TaqMan® Kit A25603). The primers/probes sets that were used for amplification of cDNA were obtained from TaqMan Gene Expression Assays (Applied Biosystems). The comparative CT (ΔΔCT) relative quantification method was used to calculate the relative mRNA level of the target gene NQO1 as described in the Applied Biosystems Chemistry Guide. The data are expressed as an increase in target gene mRNA compared to vehicle (0.1% DMSO) control and the EC50 values were determined by fitting the data to a four parameter logistic fit using XLfit or XE Runner within ActivityBase.

The mark [3] stands for this setting: BEAS-2B cells, compound for 24 h, increase in NQO1 mRNA compared to vehicle (0.1% DMSO) control, read-out: EC50.

As usually defined, the IC50 is the midpoint of a concentration-inhibition curve. A lower IC50 goes with greater potency in that assay. Usually EC50 stands for the midpoint of the concentration-response curve.

T1 sequence (Q14145 321-609): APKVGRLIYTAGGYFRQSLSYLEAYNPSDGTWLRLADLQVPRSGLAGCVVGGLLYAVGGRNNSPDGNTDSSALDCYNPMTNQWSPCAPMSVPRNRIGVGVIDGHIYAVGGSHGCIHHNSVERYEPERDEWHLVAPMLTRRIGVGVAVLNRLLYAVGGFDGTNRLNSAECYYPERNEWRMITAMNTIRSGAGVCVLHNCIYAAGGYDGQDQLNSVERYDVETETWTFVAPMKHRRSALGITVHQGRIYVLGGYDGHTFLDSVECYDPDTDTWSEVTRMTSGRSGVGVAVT

Turning to `CNC(=O)[C@H]1CCCC[C@H]1C(=O)N1CCc2c(Cl)ccc(OCc3nnn(C)c3C(F)F)c2[C@H]1CN1Cc2ccccc2C1=O` [Example 76, (1S,2R)-2-((S)-5-chloro-8-((5-(difluoromethyl)-1-methyl-1H-1,2,3-triazol-4-yl)methoxy)-1-((1-oxoisoindolin-2-yl)methyl)-1,2,3,4-tetrahydroisoquinoline-2-carbonyl)-N-methylcyclohexane-1-carboxamide], the IC50 in assay [1] was 11 nM. For the same molecule, the EC50 in assay [2] (setting [3]) stood at 166 nM.

In the case of `CNC(=O)[C@H]1CCCC[C@H]1C(=O)N1CCc2c(Cl)ccc(OCc3nnc4ccccn34)c2[C@H]1CN1Cc2ccccc2C1=O` [Example 77, (1S,2R)-2-((S)-8-([1,2,4]triazolo[4,3-a]pyridin-3-ylmethoxy)-5-chloro-1-((1-oxoisoindolin-2-yl)methyl)-1,2,3,4-tetrahydroisoquinoline-2-carbonyl)-N-methylcyclohexane-1-carboxamide], in assay [1], the 50% inhibitory concentration (IC50) was 7.2 nM. Moreover, the EC50 in assay [2] (setting [3]) came to 77 nM.

As for `O=C(NCC(F)(F)CO)[C@H]1CCCC[C@H]1C(=O)N1CCc2c(Cl)ccc(OCc3noc4ccccc34)c2[C@H]1CN1CCCC1=O` [Example 78, (1S,2R)-2-((S)-8-(benzo[d]isoxazol-3-ylmethoxy)-5-chloro-1-((2-oxopyrrolidin-1-yl)methyl)-1,2,3,4-tetrahydroisoquinoline-2-carbonyl)-N-(2,2-difluoro-3-hydroxypropyl)cyclohexane-1-carboxamide], the concentration for half-maximal inhibition (IC50) in assay [1] worked out at 110 nM. Moreover, the EC50 in assay [2] (setting [3]) was over 10000 nM.

For `CNC(=O)N1CCCC[C@H]1C(=O)N1CCc2c(Cl)ccc(OCc3nnn(C)c3C(F)F)c2[C@H]1CN1CCCC1=O` [Example 79, (S)-2-((S)-5-chloro-8-((5-(difluoromethyl)-1-methyl-1H-1,2,3-triazol-4-yl)methoxy)-1-((2-oxopyrrolidin-1-yl)methyl)-1,2,3,4-tetrahydroisoquinoline-2-carbonyl)-N-methylpiperidine-1-carboxamide], inhibition in assay [1] was half-maximal at 14 nM (IC50). In addition, in assay [2] (setting [3]), the EC50 came to 336 nM.

Consider `CNC(=O)[C@H]1CCCC[C@H]1C(=O)N1CCc2c(Cl)ccc(OCc3ccc4ncn(C)c4n3)c2[C@H]1CN1CCCC1=O` [Example 80, (1S,2R)-2-((S)-5-chloro-8-((3-methyl-3H-imidazo[4,5-b]pyridin-5-yl)methoxy)-1-((2-oxopyrrolidin-1-yl)methyl)-1,2,3,4-tetrahydroisoquinoline-2-carbonyl)-N-methylcyclohexane-1-carboxamide], for which, in assay [1], the midpoint of inhibition, the IC50, lay at 371 nM. Further, the EC50 in assay [2] (setting [3]) came out at 2250 nM.

In assay [1], `CNC(=O)[C@H]1CCCC[C@H]1C(=O)N1CCc2c(Cl)ccc(OCc3nn(C)c4ccccc34)c2[C@H]1CN1CCCC1=O` [Example 81, (1S,2R)-2-((S)-5-chloro-8-((1-methyl-1H-indazol-3-yl)methoxy)-1-((2-oxopyrrolidin-1-yl)methyl)-1,2,3,4-tetrahydroisoquinoline-2-carbonyl)-N-methylcyclohexane-1-carboxamide] came in with an IC50 of 723 nM. Also, the EC50 in assay [2] (setting [3]) was over 10000 nM.

As to `CNC(=O)[C@@]1(C)CCCC[C@H]1C(=O)N1CCc2c(Cl)ccc(OCc3noc4ccccc34)c2[C@H]1CN1CCCC1=O` [Example 83, (1S,2R)-2-((S)-8-(benzo[d]isoxazol-3-ylmethoxy)-5-chloro-1-((2-oxopyrrolidin-1-yl)methyl)-1,2,3,4-tetrahydroisoquinoline-2-carbonyl)-N,1-dimethylcyclohexane-1-carboxamide], the IC50 in assay [1] came out at 12 nM. Further, the EC50 in assay [2] (setting [3]) was 473 nM.

As to `Cn1nnc(COc2ccc(Cl)c3c2[C@@H](CN2CCCC2=O)N(C(=O)[C@@H]2CCCCN2C(=O)C(F)F)CC3)c1C(F)F` [Example 84], the IC50 in assay [1] is 161 nM. Besides, the midpoint of the response in assay [2] (BEAS-2B, 24 h), the EC50, lay at 1530 nM.

The molecule `CNC(=O)[C@@]1(C)CCC[C@H]1C(=O)N1CCc2c(Cl)ccc(OCc3nnn(C)c3C(F)F)c2[C@H]1CN1CCCC1=O` [Example 85, (1S,2R)-2-((S)-5-chloro-8-((5-(difluoromethyl)-1-methyl-1H-1,2,3-triazol-4-yl)methoxy)-1-((2-oxopyrrolidin-1-yl)methyl)-1,2,3,4-tetrahydroisoquinoline-2-carbonyl)-N,1-dimethylcyclopentane-1-carboxamide] displayed an IC50 in assay [1] of 7.8 nM. For the same molecule, in assay [2] (setting [3]), the concentration for a half-maximal effect (EC50) worked out at 330 nM.

In assay [1], `CNC(=O)[C@H]1CCCC[C@H]1C(=O)N1CCc2c(Cl)ccc(OCc3nnc(C)n3C)c2[C@H]1CN1CCCC1=O` [Example 86, (1S,2R)-2-((S)-5-chloro-8-((4,5-dimethyl-4H-1,2,4-triazol-3-yl)methoxy)-1-((2-oxopyrrolidin-1-yl)methyl)-1,2,3,4-tetrahydroisoquinoline-2-carbonyl)-N-methylcyclohexane-1-carboxamide] showed an IC50 of 14 nM. Moreover, the EC50 in assay [2] (setting [3]) was 2420 nM.

Molecule `CNC(=O)N1CCOC[C@H]1C(=O)N1CCc2c(Cl)ccc(OCc3nnn(C)c3C(F)F)c2[C@H]1CN1CCCC1=O` [Example 87, (S)-3-((S)-5-chloro-8-((5-(difluoromethyl)-1-methyl-1H-1,2,3-triazol-4-yl)methoxy)-1-((2-oxopyrrolidin-1-yl)methyl)-1,2,3,4-tetrahydroisoquinoline-2-carbonyl)-N-methylmorpholine-4-carboxamide] showed an IC50 in assay [1] of 39 nM. Moreover, in assay [2] (setting [3]), the EC50 turned out to be 4130 nM.

Consider `CNC(=O)N1CC2(CC2)C[C@H]1C(=O)N1CCc2c(Cl)ccc(OCc3nnn(C)c3C(F)F)c2[C@H]1CN1CCCC1=O` [Example 88, (S)-6-((S)-5-chloro-8-((5-(difluoromethyl)-1-methyl-1 H-1,2,3-triazol-4-yl)methoxy)-1-((2-oxopyrrolidin-1-yl)methyl)-1,2,3,4-tetrahydroisoquinoline-2-carbonyl)-N-methyl-5-azaspiro[2.41]heptane-5-carboxamide], for which, in assay [1], the IC50 was determined as 67 nM. In assay [2] (BEAS-2B, 24 h), this molecule yielded an EC50 of 7560 nM.

As for `CNC(=O)N1CCC[C@H]1C(=O)N1CCc2c(Cl)ccc(OCc3cn(C)nn3)c2[C@H]1CN1CCCC1=O` [Example 89, (S)-2-((S)-5-chloro-8-((1-methyl-1H-1,2,3-triazol-4-yl)methoxy)-1-((2-oxopyrrolidin-1-yl)methyl)-1,2,3,4-tetrahydroisoquinoline-2-carbonyl)-N-methylpyrrolidine-1-carboxamide], the IC50 in assay [1] worked out at 19 nM. Moreover, the EC50 in assay [2] (setting [3]) worked out at 8720 nM.

In turn, `CNC(=O)[C@@]1(C)CCCC[C@H]1C(=O)N1CCc2c(Cl)ccc(OCc3nnn(C)c3C)c2[C@H]1CN1CCCC1=O` [Example 90, (1S,2R)-2-((S)-5-chloro-8-((1,5-dimethyl-1H-1,2,3-triazol-4-yl)methoxy)-1-((2-oxopyrrolidin-1-yl)methyl)-1,2,3,4-tetrahydroisoquinoline-2-carbonyl)-N,1-dimethylcyclohexane-1-carboxamide] had an IC50 in assay [1] of 7.9 nM. Further, the concentration for a half-maximal effect (EC50) in assay [2] (setting [3]) is 94 nM.

In assay [1], `CNC(=O)[C@@]1(C)CCCC[C@H]1C(=O)N1CCc2c(Cl)ccc(OCc3nnn(C)c3C(F)(F)F)c2[C@H]1CN1CCCC1=O` [Example 91, (1S,2R)-2-((S)-5-chloro-8-((1-methyl-5-(trifluoromethyl)-1H-1,2,3-triazol-4-yl)methoxy)-1-((2-oxopyrrolidin-1-yl)methyl)-1,2,3,4-tetrahydroisoquinoline-2-carbonyl)-N,1-dimethylcyclohexane-1-carboxamide] gave an IC50 of 9.8 nM. Besides, the EC50 in assay [2] (setting [3]) was determined as 607 nM.

With `CNC(=O)N1CCCC[C@H]1C(=O)N1CCc2c(Cl)ccc(OCc3cn(C)nn3)c2[C@H]1CN1CCCC1=O` [Example 92, (S)-2-((S)-5-chloro-8-((1-methyl-1H-1,2,3-triazol-4-yl)methoxy)-1-((2-oxopyrrolidin-1-yl)methyl)-1,2,3,4-tetrahydroisoquinoline-2-carbonyl)-N-methylpiperidine-1-carboxamide], the IC50 in assay [1] is 12 nM. In addition, the 50% effective concentration (EC50) in assay [2] (setting [3]) came out at 565 nM.

In the case of `CNC(=O)[C@@]1(C)CCCC[C@H]1C(=O)N1CCc2c(Cl)ccc(OCc3cn(C)nn3)c2[C@H]1CN1CCCC1=O` [Example 93, (1S,2R)-2-((S)-5-chloro-8-((1-methyl-1H-1,2,3-triazol-4-yl)methoxy)-1-((2-oxopyrrolidin-1-yl)methyl)-1,2,3,4-tetrahydroisoquinoline-2-carbonyl)-N,1-dimethylcyclohexane-1-carboxamide], inhibition in assay [1] was half-maximal at 851 nM (IC50). Further, the EC50 in assay [2] (setting [3]) was over 10000 nM.
